The record followed here is patent US10639345B2, “Compositions for preserving photoreceptor cells, retinal pigment epithelial cells, or visual function” (Massachusetts Eye and Ear Infirmary, priority 2010, dated 2020).

Where a SMILES comes first, the peptide text is derived from it. The star is where a group is joined. Cbz = O=C(OCc1ccccc1)*; CH2F = FC*

The test system of assay [1] is photoreceptors. The experiment in a line: Normalized ONL thickness ratio after experimental retinal detachment. The assay is classed as in vivo, rat. To be noted: subretinal Z-VAD 300 μM and/or Nec-1 400 μM. Here is the method: Photoreceptor death was also assessed by TUNEL analysis at three days after retinal detachment in retina treated with either vehicle, Nec-1, Z-VAD or Nec-1+Z-VAD. […] Nine sections for each eye specimen were randomly selected, and the central area of detached retina and the mid-peripheral region of attached retina were photographed. The ONL thickness ratio was measured at ten points in each section by masked observers. […] (GCL: ganglion cell layer, INL: inner nuclear layer. *, P<0.05. Scale bar, 100 μm). […]
TNF-α protein contents in rat retina were determined using ELISA Kit for rat TNF-α (Invitrogen, Carlsbad, Calif.). Goat anti-mouse/rat TNF-α blocking antibody was purchased from R&D Systems (Minneapolis, Minn.). The rat eyes were subretinally injected with 1% of sodium hyaluronate containing 0.1 mg/ml of anti-TNF-α antibody or control antibody.

The subject of assay [2] is photoreceptors. Put plainly: In vivo propidium iodide staining of photoreceptors after retinal detachment, wild-type retina. On the set-up: species or system mouse. Conditions: three days after retinal detachment. The procedure: In vivo propidium iodide (PI) staining was performed by injecting 5 μl of PI (50 μg/ml) into the subretinal space three days after retinal detachment. After two hours, the eyes were enucleated and 10 μm thick cryosections were cut, air-dried, and fixed in 100% ethanol. DAPI was used to counterstain the nuclei. The center of the detached retina was photographed by fluorescence microscope, and the number of PI-positive cells in ONL was analyzed by ImageJ software.
(*, P<0.05; **, P<0.01; scale bar, 100 μm.)

Assay [3] deals with photoreceptors. Put plainly: TEM quantification of photoreceptor death after retinal detachment in WT mice. The assay is classed as in vivo. To be noted: day three after retinal detachment. The procedure:
(§1) TEM was performed as previously described (Hisatomi T et al. (2008). J. CLIN. INVEST. 118:2025-2038). […] Over 200 photoreceptors each eye were photographed and subjected to quantification of cell death modes in a masked fashion. Photoreceptors showing cellular shrinkage and nuclear condensation were defined as apoptotic cells, while photoreceptors associated with cellular and organelle swelling and discontinuities in nuclear and plasma membrane were defined as necrotic cells. The presence of electron-dense granular materials were reported to occur subsequent to both apoptotic and necrotic cell death and cells with these findings were labeled simply as end-stage cell death/unclassified (Hisatomi T et al. (2003) AM. J. PATHOL. 162:1869-1879; Erickson P A et al. (1983) INVEST. OPHTHALMOL. VIS. SCI. 24:927-942).
(§2) The morphology of the RIP-3−/− retina after retinal detachment was also assessed by TEM. […] RIP-3 deficiency inhibits the switch to necrotic cell death by Z-VAD treatment and prevents photoreceptor death after retinal detachment. Scale bar, 5 μm.

Assay [4] concerns photoreceptors. The experiment in a line: TEM quantification of photoreceptor death after retinal detachment in RIP-3−/− mice. The assay is classed as in vivo. To be noted: day three after retinal detachment. The procedure: as §1, §2
Assay [5] concerns CD11b-positive macrophage/microglia. Put plainly: CD11b-positive cell infiltration after retinal detachment in RIP-3−/− eyes. The assay is classed as in vivo, RIP-3−/− mice. The procedure:
(§3) Immunofluorescence was performed as previously reported (Hisatomi et al. (2008) J CLIN INVEST 118:2025-2038. The enucleated eyes were frozen in OCT compound (Sakura Finetechnical Co., Tokyo, Japan). Five μm-thick sections were cut, air dried and fixed in cold acetone for 10 minutes. Rat anti-CD11b (1:50; BD Biosciences, San Diego, Calif.) was used as the primary antibody and incubated at 4° C. overnight. A nonimmune serum was used as a negative control. Alexa Fluor 594-conjugated goat anti-rat IgG (Invitrogen, Carlsbad, Calif.) was used as the secondary antibody and incubated at room temperature for one hour. The specimens were imaged by confocal microscopy using the Leica HCX APOL40× lens.
Since the release of intracellular content in necrosis results in secondary inflammation, changes in the inflammatory response after retinal detachment were investigated by immunohistochemistry and immunofluorescence with an antibody against CD11b. FIG. 11A-B show IHC for CD11b (FIG. 11A) and quantification of CD11b-positive cells in control retina without retinal detachment and in retina treated with vehicle, Z-VAD or Z-VAD+Nec-1 (n=6 each) (FIG. 11B) at three days after retinal detachment. […]
(§4) FIG. 11C-D show immunofluorescence for CD11b (FIG. 11C) and quantification of CD11b-positive macrophage/microglia (FIG. 11D) in WT and RIP-3−/− retina after retinal detachment.

The test system is the same in assay [6]. The experiment in a line: CD11b immunofluorescence after retinal detachment in WT mice. The assay is classed as in vivo. Here is the method:
as §3, §4

Assay [7] has as its system carbonyl adducts of proteins. The experiment in a line: Protein carbonyl ELISA (oxidative retinal damage) after retinal detachment. The assay is classed as in vivo. To be noted: day three after retinal detachment, wild type. Here is the method:
Recent studies reported that RIP kinases regulate downstream ROS production during programmed necrosis (Cho Y S et al. (2009) CELL 137:1112-1123; Zhang D W et al. (2009) SCIENCE 325:332-336; Kim et al. (2007) MOL CELL 26:675-687). ELISA for carbonyl adducts of proteins was used to examine oxidative retinal damage following retinal detachment. Specifically, the amounts of protein carbonyls were determined by using OxiSelect™ Protein Carbonyl ELISA Kit (Cell Biolabs, San Diego, Calif.).
(In general: ELISA stands for enzyme-linked immunosorbent assay.)

The next assay has as its system primary RPE cells. Put plainly: Viability of primary RPE cells treated with poly I:C (Cell Counting Kit-8). The assay is classed as cell-based, mice. To be noted: WT primary RPE cells, 5 μg/ml poly I:C for 48 hours. The procedure: (§5) As described in Example 11, primary RPE cells were extracted from the retina of mice and cultured in the presence of 5 μg/ml of poly I:C for 48 hours or with PBS. Cell viability was measured using Cell Counting Kit-8 (Dojindo Laboratories, Kumamoto, Japan). This assay is based on the cleavage of 2-(2-methoxy-4-nitrophenyl)-3-(4-nitrophenyl)-5-(2,4-disulfophenyl)-2H-tetrazolium, monosodium salt (WST-8) by the mitochondrial dehydrogenase enzyme to produce a formazan dye. After incubation with WST-8 for two hours at 37° C., absorbance was measured at 450 nm to determine cell viability.
For orientation: Tetrazolium dyes change colour on reduction, which living cells bring about.

In a further assay the test system is RIP-3−/− RPE cells. Put plainly: Viability of RIP-3−/− RPE cells treated with poly I:C (Cell Counting Kit-8). The assay is classed as cell-based, mice. The procedure:
as §5
Without poly I:C treatment, the viability of RPE cells was similar in WT and RIP-3−/− cells.

Assay [8] has as its system photoreceptors. Put plainly: Normalized ONL thickness ratio after retinal detachment in RIP-3−/− mice.
Procedure: TUNEL assays were used to measure the amount of apoptotic and necrotic cell death (Grasl-Kraupp et al., HEPTALOGY (1995) 21(5):1465-8). TUNEL and quantification of TUNEL positive cells in ONL were performed as described above by using the ApopTag Fluorescein In Situ Apoptosis Detection Kit (Millipore, Billerica, Mass.). The ratio of the ONL thickness to the thickness of neuroretina in the central area of the detached retina was determined by National Institutes of Health ImageJ software and standardized by that in the attached retina. The data are expressed as normalized ONL thickness ratio [(ONL/neuroretina thickness in detached retina)/(ONL/neuroretina thickness in attached retina)].

For `COC(=O)CC(NC(=O)C(C)NC(=O)C(NC(=O)OCc1ccccc1)C(C)C)C(=O)CF` (stereo not drawn) [Z-VAD, Benzyloxycarbonyl-Val-Ala-Asp(OMe)-fluoromethylketone] (Cbz-Val-Ala-Asp(OMe)-CH2F; configuration not given here), the “normalized ONL thickness ratio” value in the assay on photoreceptors [1] (five days after retinal detachment) came to 0.54±0.10; in the assay on photoreceptors [1] (three days after retinal detachment), 0.72±0.08; in the assay with photoreceptors [8] (five days after retinal detachment, RIP-3−/− mice), 0.841±0.042. Moreover, the “number of PI-positive photoreceptors in the ONL” value with photoreceptors [2] is 817.4±104.2 cells/mm^2. For the same compound, the “% apoptotic cells (TEM)” value in the assay on photoreceptors [3] is given as 13.3±1.5%; in the assay with photoreceptors [4] it was 4.8±1.3%. The “% necrotic cells (TEM)” value was 22.1±1.0% with photoreceptors [3] and 6.4±1.3% in the assay on photoreceptors [4]. The entries for the “% unclassified (TEM)” value in the assay with photoreceptors [3] and in the assay with photoreceptors [4] were 1.0±0.6% and 0.9±0.4%, respectively. Moreover, the “infiltration of CD11-b positive cells in the retina and subretinal space” value in [5] was “even less infiltration”. For the same compound, the “infiltration of CD11b-positive cells (immunofluorescence)” value in [6] is reported as “significantly increased infiltration”. For the same compound, the “carbonyl contents per mg protein” value in assay [7] is given as “significant increase of carbonyl contents”. For the same compound, the “viability of RPE cells” value in the assay on primary RPE cells is on record as “did not protect WT RPE cells”; in the assay with RIP-3−/− RPE cells it was “protected from cell death”. In addition, the ONL thickness ratio entry with photoreceptors [8] (day 3 and 5 after retinal detachment, RIP-3−/− retinas) was “augmented”.
